Consider 27 compounds from US20230044787A1, “TRICYCLE DIHYDROIMIDAZOPYRIMIDONE DERIVATIVE, PREPARATION METHOD THEREOF, PHARMACEUTICAL COMPOSITION AND USE THEREOF” (priority 2019, published 2023).

In the assay the target is T1, Lp-PLA2 (Homo sapiens, UniProt Q13093).
T1 construct: aliquoted and thawed 40 μL of pooled human plasma was previously added; from tissue; host or cells: pooled human plasma
T1 sequence (Q13093 22-441): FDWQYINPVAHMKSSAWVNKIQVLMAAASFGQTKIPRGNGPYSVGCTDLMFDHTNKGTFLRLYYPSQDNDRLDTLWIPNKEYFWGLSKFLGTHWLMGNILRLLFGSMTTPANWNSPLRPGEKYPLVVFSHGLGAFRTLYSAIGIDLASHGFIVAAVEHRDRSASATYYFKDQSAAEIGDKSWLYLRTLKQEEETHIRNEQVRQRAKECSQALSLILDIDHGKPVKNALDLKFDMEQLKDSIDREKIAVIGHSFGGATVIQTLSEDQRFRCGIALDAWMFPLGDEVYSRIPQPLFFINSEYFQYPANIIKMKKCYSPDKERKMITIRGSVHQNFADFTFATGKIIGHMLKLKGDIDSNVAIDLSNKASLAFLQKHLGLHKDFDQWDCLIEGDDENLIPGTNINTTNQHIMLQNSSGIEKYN
The assay can be described thus: Lipoprotein-associated phospholipase A2 (Lp-PLA2) human plasma assay (Thio-PAF assay). As to conditions: Lp-PLA2 human plasma assay (Thio-PAF), pooled human plasma, 30-min pre-incubation at room temperature. Format: biochemical.
In the case of `CC(C)c1c(OCc2cc(F)c(Oc3ccnc(C(F)(F)F)c3)c(F)c2)nc(=O)n2c1N1C[C@@H]3C[C@]1(CO3)C2` [Example 107, (3S,11aR)-7-((3,5-difluoro-4-((2-(trifluoromethyl)pyridin-4-yl)oxy)benzyl)oxy)-6-isopropyl-3,4-dihydro-1H,9H,11H-3,11a-methanopyrimido[6′,1′:2,3] imidazo[5,1-c][1,4]oxazin-9-one], the IC50 is 9.5 nM. The figure for `[2H]C1([2H])n2c(cc(OCc3cc(F)c(Oc4ccnc(C(F)(F)F)c4)c(F)c3)nc2=O)N2C[C@@H]3C[C@@]21CO3` [Example 93] is 3.7 nM; for `O=c1nc(OCCc2ccc(Oc3cccc(C(F)(F)F)c3)cc2)cc2n1CC13CC(CN21)C3` [Example 133, 3-(4-(3-(trifluoromethyl)phenoxy)phenethoxy)-7,8-dihydro-1H,6H,9H-7,8a-methanopyrrolo[1′,2′:3,4] imidazo[1,2-c]pyrimidin-1-one] it is 36.6 nM; for `O=c1nc(OCc2ccc(Oc3ccnc(C(F)(F)F)c3)c(F)c2)cc2n1CC13CCC(CC1)N23` [Example 149, 3-((3-fluoro-4-((2-(trifluoromethyl)pyridin-4-yl)oxy)benzyl)oxy)-7,8-dihydro-1H,6H,9H-6,8a-ethanopyrrolo[1′,2′:3,4] imidazo[1,2-c]pyrimidin-1-one] it is 4.1 nM.

`O=c1nc(OCc2ccc(Oc3ccnc(Cl)c3)c(F)c2)cc2n1CC13CC(CN21)C3` [Example 155]: the IC50 turned out to be 3.7 nM. Take `COc1c(OCCc2cc(F)c(Oc3ccnc(C(F)(F)F)c3)c(F)c2)nc(=O)n2c1N1CC3CC1(C3)C2` [Example 189, 3-(3,5-difluoro-4-((2-(trifluoromethyl)pyridin-4-yl)oxy)phenethoxy)-4-methoxy-7,8-dihydro-1H,6H,9H-7,8a-methanopyrrolo[1′,2′:3,4] imidazo[1,2-c] pyrimidin-1-one]: the IC50 is 8.6 nM. Under `O=C(NCc1ccccc1)C12CN3c4cc(OCc5ccc(Oc6ccnc(C(F)(F)F)c6)c(F)c5)nc(=O)n4CC3(C1)C2` [Example 199, N-benzyl-3-((3-fluoro-4-((2-(trifluoromethyl)pyridin-4-yl)oxy)benzyl)oxy)-1-oxo-1H,6H, 9H-7,8a-methanopyrrolo[1′,2′:3,4]imidazo [1,2-c]pyrimidine-7(8H)-carboxamide] stands 7.9 nM.

Take `O=c1nc(OCc2cc(F)c(Oc3ccnc(Cl)c3)c(F)c2)cc2n1C[C@]13CO[C@H](CN21)C3` [Example 6, (3S,11aR)-7-((4-((2-chloropyridin-4-yl)oxy)-3,5-difluorobenzyl)oxy)-3,4-dihydro-1H,9H,11H-3,11a-methanopyrimido[6′,1′:2,3] imidazo[5,1-c][1,4]oxazin-9-one]: the concentration for half-maximal inhibition (IC50) stood at 4.9 nM.

`N#Cc1cc(COc2cc3n(c(=O)n2)C[C@]24CO[C@H](CN32)C4)ccc1Oc1ccnc(C(F)(F)F)c1` [Example 22, 5-((((3S,11aR)-9-oxo-3,4-dihydro-1H,9H,11H-3,11a-methanopyrimido[6′,1′:2,3]imidazo[5,1-c][1,4]oxazin-7-yl)oxy)methyl)-2-((2-(trifluoromethyl)pyridin-4-yl)oxy)benzonitrile]: the IC50 worked out at 3 nM. On to `Cc1cc(Oc2ccc(COc3cc4n(c(=O)n3)CC35CCC(CC3)N45)cc2F)ccn1` [Example 120, 3-((3-fluoro-4-((2-methyl-pyridin-4-yl)oxy)benzyl)oxy)-7,8-dihydro-1H,6H,9H-6,8a-ethanopyrrolo[1′,2′:3,4] imidazo[1,2-c]pyrimidin-1-one], for which the half-inhibitory concentration (IC50) was determined as 8.7 nM. The figure for `COc1c(OCc2ccc(F)c(C#N)c2)nc(=O)n2c1N1C[C@@H]3C[C@]1(CO3)C2` [Example 142] is 3.6 nM; for `O=c1nc(OCc2ccc(Oc3ccnc(C(F)(F)F)c3)c(F)c2)c(C(F)(F)F)c2n1C[C@]13CO[C@H](CN21)C3` [Example 164, (3S,11aR)-7-((3-fluoro-4-((2-(trifluoromethyl)pyridin-4-yl)oxy)benzyl)oxy)-6-(trifluoromethyl)-3,4-dihydro-1H,9H,11H-3,11a-methanopyrimido[6′,1′:2,3] imidazo[5,1-c][1,4]oxazin-9-one] it is 1.5 nM; for `O=c1nc(OCCc2cc(F)c(Oc3ccnc(C(F)(F)F)c3)c(F)c2)cc2n1C[C@]13CO[C@H](CN21)C3` [Example 99, (3S,11aR)-7-(3,5-difluoro-4-((2-(trifluoromethyl)pyridin-4-yl)oxy)phenethoxy)-3,4-dihydro-1H,9H,11H-3,11a-methanopyrimido[6′-,1′:2,3] imidazo[5,1-c][1,4]oxazin-9-one] it is 5.6 nM. Under `O=c1nc(OCc2ccc(Oc3ccc(C(F)(F)F)nc3)c(F)c2)cc2n1CC13CC(CN21)C3` [Example 117, 3-((3-fluoro-4-((6-(trifluoromethyl)pyridin-3-yl)oxy)benzyl)oxy)-7,8-dihydro-1H,6H,9H-7,8a-methanopyrrolo[1′,2′:3,4] imidazo[1,2-c]pyrimidin-1-one] stands 9.1 nM. Turning to `O=c1nc(OCc2ccc(Oc3ccnc(C(F)(F)F)c3)c(F)c2)cc2n1CC13CC(F)(CN21)C3` [Example 157, 7-fluoro-3-((3-fluoro-4-((2-(trifluoromethyl)pyridin-4-yl)oxy)benzyl)oxy)-7,8-dihydro-1H,6H,9H-7,8a-methanopyrrolo[1′,2′:3,4] imidazo[1,2-c]pyrimidin-1-one], the IC50 stood at 3.9 nM. For the compound `CC12CCCN1c1cc(OCc3ccc(Oc4ccc(C(F)(F)F)cc4)c(C#N)c3)nc(=O)n1C2` (stereo not drawn) [Example 60, 5-(((8a-methyl-1-oxo-7,8,8a,9-tetrahydro-1H,6H-pyrrolo[1′,2′:3,4]imidazo [1,2-c]pyrimidin-3-yl)oxy)methyl)-2-(4-(trifluoromethyl)phenoxy) benzonitrile], the IC50 amounted to 6.6 nM.

On to `CC12CCCN1c1cc(OCc3ccc(Oc4ccc(F)c(C(F)(F)F)c4)nc3)nc(=O)n1C2` (stereo not drawn) [Example 58, 3-((6-(4-fluoro-3-(trifluoromethyl)phenoxy)pyridin-3-yl)methoxy)-8a-methyl-7,8,8a,9-tetrahydro-1H,6H-pyrrolo[1′,2′:3,4]imidazo [1,2-c]pyrimidin-1-one], for which the half-inhibitory concentration (IC50) stood at 204 nM. `O=c1nc(OCc2ccc(Oc3ccnc(C(F)F)c3)c(F)c2)cc2n1CC13CCC(CC1)N23` [Example 196]: the half-inhibitory concentration (IC50) stood at 15.4 nM. Consider `O=c1nc(OCCc2ccc(Oc3cccc(C(F)(F)F)c3)cc2)cc2n1C[C@]13CO[C@H](CN21)C3` [Example 132, (3S,11aR)-7-(4-(3-(trifluoromethyl)phenoxy)phenethoxy)-3,4-dihydro-1H,9H,11H-3,11a-methanopyrimido[6′,1′:2,3] imidazo[5,1-c][1,4]oxazin-9-one], for which the IC50 was 5.9 nM. On to `N#Cc1cc(COc2cc3n(c(=O)n2)C[C@@]24CO[C@@H](CN32)C4)ccc1Oc1ccc(C(F)(F)F)cc1` [Example 34, 5-((((3R,11aS)-9-oxo-3,4-dihydro-1H,9H,11H-3,11a-methanopyrimido[6′,1′:2,3]imidazo[5,1-c][1,4]oxazin-7-yl)oxy)methyl)-2-(4-(trifluoromethyl)phenoxy) benzonitrile], for which the concentration for half-maximal inhibition (IC50) is 3.6 nM. The figure for `O=c1nc(OCc2ccc(Oc3ccnc(C(F)(F)F)c3)c(F)c2)cc2n1C[C@@]13C[C@@H](CN21)N(C1CCC1)C3` [Example 177, (3S,11aS)-2-cyclobutyl-7-((3-fluoro-4-((2-(trifluoromethyl)pyridin-4-yl)oxy)benzyl)oxy)-1,2,3,4-tetrahydro-9H,11H-3,11a-methano-pyrazino[l′,2′:3,4]imidazo[1,2-c]pyrimidin-9-one] is 5.5 nM; for `COc1c(OCCc2ccc(Oc3ccnc(C(F)(F)F)c3)c(F)c2)nc(=O)n2c1N1CC3CC1(C3)C2` [Example 191, 3-(3-fluoro-4-((2-(trifluoromethyl)pyridin-4-yl)oxy)phenethoxy)-4-methoxy-7,8-dihydro-1H,6H,9H-7,8a-methanopyrrolo[1′,2′:3,4] imidazo[1,2-c]pyrimidin-1-one] it is 6.2 nM. For `O=c1nc(OCc2ccc(Oc3ccnc(C(F)(F)F)c3)c(F)c2)cc2n1CC13CCC(CC1)N23` [Example 118, 3-((3-fluoro-4-((2-(trifluoromethyl)pyridin-4-yl)oxy)benzyl)oxy)-7,8-dihydro-1H,6H,9H-6,8a-ethanopyrrolo[1′,2′:3,4] imidazo[1,2-c]pyrimidin-1-one], the 50% inhibitory concentration (IC50) stood at 6 nM.

As for `CC12COCCN1c1cc(OCc3cc(F)c(Oc4cncc(C(F)(F)F)c4)c(F)c3)nc(=O)n1C2` (stereo not drawn) [Example 80, 7-((3,5-difluoro-4-((5-(trifluoromethyl)pyridin-3-yl)oxy)benzyl)oxy)-11a-methyl-3,4,11,11a-tetrahydro-1H,9H-pyrimido[6′,1′:2,3]imidazo [5,1-c][1,4]oxazin-9-one], the IC50 is 3.3 nM. As to `CC12CCCCN1c1cc(OCc3ccc(Oc4ccc(Cl)c(C(F)(F)F)c4)c(C#N)c3)nc(=O)n1C2` (stereo not drawn) [Example 70, 2-(4-chloro-3-(trifluoromethyl)phenoxy)-5-(((-9a-methyl-1-oxo-6,7,8,9,9a,10-hexahydro-1H-pyrido[1′,2′:3,4]imidazo [1,2-c]pyrimidin-3-yl)oxy)methyl)benzonitrile], the IC50 was 6.9 nM.

In the case of `O=c1nc(OCc2cc(F)c(Oc3ccc(C(F)(F)F)nc3)c(F)c2)cc2n1C[C@]13CO[C@H](CN21)C3` [Example 9], the concentration for half-maximal inhibition (IC50) was 6.5 nM. The figure for `O=c1nc(OCc2cccc(F)c2F)cc2n1CC13CC(CN21)C3` [Example 45, 3-((2,3-difluorobenzyl)oxy)-7,8-dihydro-1H,6H,9H-7,8a-methanopyrrolo[1′,2′:3,4] imidazo[1,2-c]pyrimidin-1-one] is 71.8 nM.
